Reference: patent US10758534B2 (Vertex Pharmaceuticals Incorporated, priority 2014, dated 2020)

Biological target: T1, F508del (Homo sapiens, UniProt P13569, DEL508-508)
T1 construct: expressed in transfected cells
Test: Protocol 1: membrane potential optical assay (FLIPR III, voltage sensing dye), identification of potentiator compounds
Assay type: cell-based
Conditions: Table 3, compounds of Table 1
How it was run: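 Membrane potential in forskolin-activated, temperature-rescued F508del NIH 3T3 cells is followed with a voltage-sensing dye on FLIPR III. A chloride ion gradient created at the single addition step provides the driving force, after prior compound treatment.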

T1 sequence (P13569 with tags, fused parts or gaps DEL508-508): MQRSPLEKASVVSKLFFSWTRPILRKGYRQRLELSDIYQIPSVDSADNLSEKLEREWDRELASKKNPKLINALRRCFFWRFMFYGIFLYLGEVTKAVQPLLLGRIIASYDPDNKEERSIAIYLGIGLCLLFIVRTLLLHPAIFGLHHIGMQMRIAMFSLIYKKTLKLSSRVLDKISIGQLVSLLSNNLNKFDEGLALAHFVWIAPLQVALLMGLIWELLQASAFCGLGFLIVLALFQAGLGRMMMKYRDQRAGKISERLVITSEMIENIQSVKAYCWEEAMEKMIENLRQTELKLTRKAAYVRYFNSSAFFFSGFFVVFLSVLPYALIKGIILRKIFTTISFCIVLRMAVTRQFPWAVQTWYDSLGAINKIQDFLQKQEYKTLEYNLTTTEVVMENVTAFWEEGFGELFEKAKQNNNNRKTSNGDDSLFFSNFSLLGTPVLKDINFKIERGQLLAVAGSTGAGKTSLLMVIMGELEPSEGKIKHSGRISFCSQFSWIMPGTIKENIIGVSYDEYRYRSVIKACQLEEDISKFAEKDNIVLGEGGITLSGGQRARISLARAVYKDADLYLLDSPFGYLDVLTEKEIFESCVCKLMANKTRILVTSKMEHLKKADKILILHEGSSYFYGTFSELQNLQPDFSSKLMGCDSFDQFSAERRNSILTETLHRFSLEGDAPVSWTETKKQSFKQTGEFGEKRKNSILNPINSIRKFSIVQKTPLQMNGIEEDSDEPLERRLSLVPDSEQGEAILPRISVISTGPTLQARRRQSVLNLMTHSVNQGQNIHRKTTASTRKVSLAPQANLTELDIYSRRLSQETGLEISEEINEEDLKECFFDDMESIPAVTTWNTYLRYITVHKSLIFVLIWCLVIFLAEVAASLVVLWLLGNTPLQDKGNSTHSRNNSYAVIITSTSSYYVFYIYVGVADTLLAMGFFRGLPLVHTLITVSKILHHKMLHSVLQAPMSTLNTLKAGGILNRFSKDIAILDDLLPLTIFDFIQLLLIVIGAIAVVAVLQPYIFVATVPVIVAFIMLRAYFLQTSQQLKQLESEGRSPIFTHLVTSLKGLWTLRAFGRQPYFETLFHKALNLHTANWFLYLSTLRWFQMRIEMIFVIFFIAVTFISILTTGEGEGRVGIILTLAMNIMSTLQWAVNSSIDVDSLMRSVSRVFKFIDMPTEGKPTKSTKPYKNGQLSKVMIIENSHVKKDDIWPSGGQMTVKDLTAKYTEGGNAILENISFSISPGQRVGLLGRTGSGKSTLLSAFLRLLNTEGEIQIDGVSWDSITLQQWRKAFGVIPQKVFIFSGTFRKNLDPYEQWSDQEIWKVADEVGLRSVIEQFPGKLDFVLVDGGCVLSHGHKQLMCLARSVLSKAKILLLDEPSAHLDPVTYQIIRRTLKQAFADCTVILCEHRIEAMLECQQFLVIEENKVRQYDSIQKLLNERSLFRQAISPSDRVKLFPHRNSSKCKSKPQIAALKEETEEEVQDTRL

SMILES: C[C@@H]1CC[C@H](C)N1c1nc(-c2ccc(OC(F)F)nc2)ccc1C(=O)NS(=O)(=O)c1cccc(N)n1 [Compound 1679, N-[(6-amino-2-pyridyl)sulfonyl]-6-[6-(difluoromethoxy)-3-pyridyl]-2-[(2S,5R)-2,5-dimethylpyrrolidin-1-yl]pyridine-3-carboxamide]
- EC30: +++ (“+++” means <3 uM)

SMILES: CC(C)COc1cc(F)cc(-c2ccc(C(=O)NS(=O)(=O)c3cccc(N)n3)c(OCCC3CCCCO3)n2)c1 (stereo not shown) [Compound 1680, N-[(6-amino-2-pyridyl)sulfonyl]-6-(3-fluoro-5-isobutoxy-phenyl)-2-(2-tetrahydropyran-2-ylethoxy)pyridine-3-carboxamide]
- EC30: +++ (“+++” means <3 uM)

SMILES: CCOc1cccc2c1CN(Cc1cc(F)cc(OCC(C)C)c1)C2(C)C(=O)NS(=O)(=O)c1cccc(N)n1 (stereo not shown) [Compound 1681, N-[(6-amino-2-pyridyl)sulfonyl]-4-ethoxy-2-[(3-fluoro-5-isobutoxy-phenyl)methyl]-1-methyl-isoindoline-1-carboxamide]
- EC30: +++ (“+++” means <3 uM)

SMILES: CC(C)CC/C=C/c1cc(C(=O)NS(=O)(=O)c2cccc(N)n2)c(N2C[C@@H](C)CC2(C)C)nc1C(C)(C)C [Compound 1682, N-[(6-amino-2-pyridyl)sulfonyl]-6-tert-butyl-5-[(E)-5-methylhex-1-enyl]-2-[(4S)-2,2,4-trimethylpyrrolidin-1-yl]pyridine-3-carboxamide]
- EC30: +++ (“+++” means <3 uM)

SMILES: CC(C)=Cc1ccc(C(=O)NS(=O)(=O)c2cccc(N)n2)c(N2C[C@@H](C)CC2(C)C)n1 [Compound 1683, N-[(6-amino-2-pyridyl)sulfonyl]-6-(2-methylprop-1-enyl)-2-[(4S)-2,2,4-trimethylpyrrolidin-1-yl]pyridine-3-carboxamide]
- EC30: +++ (“+++” means <3 uM)

SMILES: C[C@@H]1CN(c2nc(C3=CN(C(=O)OC(C)(C)C)CC3)ccc2C(=O)NS(=O)(=O)c2cccc(N)n2)C(C)(C)C1 [Compound 1684, tert-butyl 4-[5-[(6-amino-2-pyridyl)sulfonylcarbamoyl]-6-[(4S)-2,2,4-trimethylpyrrolidin-1-yl]-2-pyridyl]-2,3-dihydropyrrole-1-carboxylate]
- EC30: +++ (“+++” means <3 uM)

SMILES: CC(C)COc1cc(F)cc(-c2ccc(C(=O)NS(=O)(=O)c3cccc(N)n3)c(OCCC3CC3)n2)c1 [Compound 1685, N-[(6-amino-2-pyridyl)sulfonyl]-2-(2-cyclopropylethoxy)-6-(3-fluoro-5-isobutoxy-phenyl)pyridine-3-carboxamide]
- EC30: +++ (“+++” means <3 uM)

SMILES: CC(C)COc1cc(F)cc(-c2ccc(C(=O)NS(=O)(=O)c3cccc(N)n3)c(OCCCCc3ccccc3)n2)c1 [Compound 1686, N-[(6-amino-2-pyridyl)sulfonyl]-6-(3-fluoro-5-isobutoxy-phenyl)-2-(4-phenylbutoxy)pyridine-3-carboxamide]
- EC30: +++ (“+++” means <3 uM)

SMILES: CC(C)COc1cc(F)cc(-c2ccc(C(=O)NS(=O)(=O)c3cccc(N)n3)c(OCCCCc3ccncc3)n2)c1 [Compound 1687, N-[(6-amino-2-pyridyl)sulfonyl]-6-(3-fluoro-5-isobutoxy-phenyl)-2-[4-(4-pyridyl)butoxy]pyridine-3-carboxamide]
- EC30: +++ (“+++” means <3 uM)

SMILES: CC(C)COc1cc(F)cc(-c2ccc(C(=O)NS(=O)(=O)c3cccc(N)n3)c(OCCCCc3ccccn3)n2)c1 [Compound 1688, N-[(6-amino-2-pyridyl)sulfonyl]-6-(3-fluoro-5-isobutoxy-phenyl)-2-[4-(2-pyridyl)butoxy]pyridine-3-carboxamide]
- EC30: +++ (“+++” means <3 uM)

SMILES: CC(C)COc1cc(F)cc(-c2ccc(C(=O)NS(=O)(=O)c3cccc(N)n3)c(OCCC(C)c3ccccc3)n2)c1 (stereo not shown) [Compound 1689, N-[(6-amino-2-pyridyl)sulfonyl]-6-(3-fluoro-5-isobutoxy-phenyl)-2-(3-phenylbutoxy)pyridine-3-carboxamide]
- EC30: +++ (“+++” means <3 uM)

SMILES: CC(C)COc1cc(F)cc(-c2ccc(C(=O)NS(=O)(=O)c3cccc(N)n3)c(OCCCCc3cccnc3)n2)c1 [Compound 1690, N-[(6-amino-2-pyridyl)sulfonyl]-6-(3-fluoro-5-isobutoxy-phenyl)-2-[4-(3-pyridyl)butoxy]pyridine-3-carboxamide]
- EC30: +++ (“+++” means <3 uM)

SMILES: CC(C)COc1cc(F)cc(-c2ccc(C(=O)NS(=O)(=O)c3cccc(N)n3)c(OCCCc3cccnc3)n2)c1 [Compound 1691, N-[(6-amino-2-pyridyl)sulfonyl]-6-(3-fluoro-5-isobutoxy-phenyl)-2-[3-(3-pyridyl)propoxy]pyridine-3-carboxamide]
- EC30: ++ (“++” means between 3 uM and 10 uM)

SMILES: CC(C)COc1cc(F)cc(-c2ccc(C(=O)NS(=O)(=O)c3cccc(N)n3)c(OCCCn3cccn3)n2)c1 [Compound 1692, N-[(6-amino-2-pyridyl)sulfonyl]-6-(3-fluoro-5-isobutoxy-phenyl)-2-(3-pyrazol-1-ylpropoxy)pyridine-3-carboxamide]
- EC30: ++ (“++” means between 3 uM and 10 uM)

SMILES: CC(C)COc1cc(F)cc(-c2ccc(C(=O)NS(=O)(=O)c3cccc(N)n3)c(OCCCc3ccccn3)n2)c1 [Compound 1693, N-[(6-amino-2-pyridyl)sulfonyl]-6-(3-fluoro-5-isobutoxy-phenyl)-2-[3-(2-pyridyl)propoxy]pyridine-3-carboxamide]
- EC30: +++ (“+++” means <3 uM)

SMILES: CC(C)COc1cc(F)cc(-c2ccc(C(=O)NS(=O)(=O)c3cccc(N)n3)c(OCCCc3ccccc3)n2)c1 [Compound 1694, N-[(6-amino-2-pyridyl)sulfonyl]-6-(3-fluoro-5-isobutoxy-phenyl)-2-(3-phenylpropoxy)pyridine-3-carboxamide]
- EC30: +++ (“+++” means <3 uM)

SMILES: Cc1cc(-c2ccc(C(=O)NS(=O)(=O)c3cccnc3N)c(N3C[C@@H](C)CC3(C)C)n2)cnc1OCCOC(C)C [Compound 1695, N-[(2-amino-3-pyridyl)sulfonyl]-6-[6-(2-isopropoxyethoxy)-5-methyl-3-pyridyl]-2-[(4S)-2,2,4-trimethylpyrrolidin-1-yl]pyridine-3-carboxamide]
- EC30: +++ (“+++” means <3 uM)

SMILES: CCOCCOCCOc1cc(C)cc(-c2ccc(C(=O)NS(=O)(=O)c3cccc(N)n3)c(N3C[C@@H](C)CC3(C)C)n2)n1 [Compound 1696, N-[(6-amino-2-pyridyl)sulfonyl]-6-[6-[2-(2-ethoxyethoxy)ethoxy]-4-methyl-2-pyridyl]-2-[(4S)-2,2,4-trimethylpyrrolidin-1-yl]pyridine-3-carboxamide]
- EC30: +++ (“+++” means <3 uM)

SMILES: C[C@@H]1CN(c2nc(C3=CCCCO3)ccc2C(=O)NS(=O)(=O)c2cccnc2N)C(C)(C)C1 [Compound 1699, N-[(2-amino-3-pyridyl)sulfonyl]-6-(3,4-dihydro-2H-pyran-6-yl)-2-[(4S)-2,2,4-trimethylpyrrolidin-1-yl]pyridine-3-carboxamide]
- EC30: +++ (“+++” means <3 uM)

SMILES: CCOCCOc1cc(C)cc(-c2ccc(C(=O)NS(=O)(=O)c3cccc(N)n3)c(N3C[C@@H](C)CC3(C)C)n2)n1 [Compound 1700, N-[(6-amino-2-pyridyl)sulfonyl]-6-[6-(2-ethoxyethoxy)-4-methyl-2-pyridyl]-2-[(4S)-2,2,4-trimethylpyrrolidin-1-yl]pyridine-3-carboxamide]
- EC30: +++ (“+++” means <3 uM)

SMILES: Cc1ccccc1-c1cnc(N2CC(C)CC2(C)C)c(C(=O)NS(=O)(=O)c2cccc(N)n2)c1 (stereo not shown) [Compound 1701, N-[(6-amino-2-pyridyl)sulfonyl]-5-(o-tolyl)-2-(2,2,4-trimethylpyrrolidin-1-yl)pyridine-3-carboxamide]
- EC30: +++ (“+++” means <3 uM)

SMILES: Cc1cc(-c2ccc(C(=O)NS(=O)(=O)c3cccnc3N)c(N3C[C@@H](C)CC3(C)C)n2)cnc1OC(C)C [Compound 1702, N-[(2-amino-3-pyridyl)sulfonyl]-6-(6-isopropoxy-5-methyl-3-pyridyl)-2-[(4S)-2,2,4-trimethylpyrrolidin-1-yl]pyridine-3-carboxamide]
- EC30: +++ (“+++” means <3 uM)

SMILES: Cc1cc(OCCOC(C)C)nc(-c2ccc(C(=O)NS(=O)(=O)c3cccc(N)n3)c(N3C[C@@H](C)CC3(C)C)n2)c1 [Compound 1703, N-[(6-amino-2-pyridyl)sulfonyl]-6-[6-(2-isopropoxyethoxy)-4-methyl-2-pyridyl]-2-[(4S)-2,2,4-trimethylpyrrolidin-1-yl]pyridine-3-carboxamide]
- EC30: +++ (“+++” means <3 uM)

SMILES: CC1CN(c2ncccc2C(=O)NS(=O)(=O)c2cccc(OCCc3ccc(F)cc3)n2)C(C)(C)C1 (stereo not shown) [Compound 1704, N—[[6-[2-(4-fluorophenyl)ethoxy]-2-pyridyl]sulfonyl]-2-(2,2,4-trimethylpyrrolidin-1-yl)pyridine-3-carboxamide]
- EC30: +++ (“+++” means <3 uM)

SMILES: COc1ccc(-c2ccc(C(=O)NS(=O)(=O)c3cccnc3N)c(N3C[C@@H](C)CC3(C)C)n2)c(OC)c1 [Compound 1705, N-[(2-amino-3-pyridyl)sulfonyl]-6-(2,4-dimethoxyphenyl)-2-[(4S)-2,2,4-trimethylpyrrolidin-1-yl]pyridine-3-carboxamide]
- EC30: +++ (“+++” means <3 uM)

SMILES: C[C@@H]1CN(c2nc(-c3ccccc3CO)ccc2C(=O)NS(=O)(=O)c2cccnc2N)C(C)(C)C1 [Compound 1706, N-[(2-amino-3-pyridyl)sulfonyl]-6-[2-(hydroxymethyl)phenyl]-2-[(4S)-2,2,4-trimethylpyrrolidin-1-yl]pyridine-3-carboxamide]
- EC30: ++ (“++” means between 3 uM and 10 uM)

SMILES: COc1ccc(-c2ccc(C(=O)NS(=O)(=O)c3cccnc3N)c(N3C[C@@H](C)CC3(C)C)n2)c(CO)c1 [Compound 1707, N-[(2-amino-3-pyridyl)sulfonyl]-6-[2-(hydroxymethyl)-4-methoxy-phenyl]-2-[(4S)-2,2,4-trimethylpyrrolidin-1-yl]pyridine-3-carboxamide]
- EC30: ++ (“++” means between 3 uM and 10 uM)

SMILES: CC1CN(c2ncccc2C(=O)NS(=O)(=O)c2cccc(N3CCC(c4ccccc4)C3)n2)C(C)(C)C1 (stereo not shown) [Compound 1708, N—[[6-(3-phenylpyrrolidin-1-yl)-2-pyridyl]sulfonyl]-2-(2,2,4-trimethylpyrrolidin-1-yl)pyridine-3-carboxamide]
- EC30: +++ (“+++” means <3 uM)
